From US9855320B2, “Angiogenin for treatment of glaucoma” (CHUNG-ANG UNIVERSITY INDUSTRY-ACADEMIC COOPERATION …, priority 2011, dated 2018)

Assays:
[1] = tested on: nitric oxide (NO) concentration in aqueous humor; assay: NO concentration in aqueous humor after instillation (Griess assay); type: in vivo, rat; conditions: 50 μg/ml, rank among instillation groups
Description: Normal rat models were divided into 4 groups, each group consisting of 6 rats, that is, 12 eyes, and at 8 AM and 8 PM, each group was instilled with angiogenin 50 μg/ml, angiogenin fragment 50 μg/ml, and latanoprost 50 μg/ml, and 1, 3, and 6 hours after instillation, 15 to 20 μl of aqueous humor was extracted from two rats, that is, 4 eyes for each group. For the extraction of aqueous humor, first, rats were anesthetized, and then, corneal dissection was performed in a direction from at 9 o'clock outside each eye toward microkeratome, and then, a capillary tube was brought into contact through a dissection wound to absorb aqueous humor, which was then moved to an eppendroff tube and frozen-preserved at a temperature of −70 degrees. Thereafter, nitric oxide (NO) concentration in aqueous humor was measured by Griess assay (nitric oxide colorimetric assay kit, Biovision, USA). The aqueous humor was diluted 10 times and then mixed with the same amount of griess solution and reacted together for 10 minutes. The reaction product was moved onto a well plate and then, absorbance of nitrate, which is a NO formation reactant, was measured by using spectrophotometer at a wavelength of 540 nm and compared with a reference value to quantify the nitrate.

angiogenin = assay: Angiogenin concentration change in human tear after Latanoprost instillation (ELISA array); type: in vivo
Description: Angiogenin concentration change in tears due to long-, short-term instillation of […] Latanoprost (Xalatan; Pfizer Inc., New York, N.Y., USA) was assayed by using ELISA kit (Custom Cytokine Human Antibody Array, RayBiotech). Short-term tear component change assay was performed as follows: 12 people, that is, 24 eyes were instilled with […] Latanoprost and then, angiogenin concentration in tear was qualitatively assayed before instillation and 6 hours after instillation. Long-term tear component change assay was performed as follows: 10 people, that is, 20 eyes, who were newly diagnosed with glaucoma were instilled with […] Latanoprost instillation for two months once a day, and then, angiogenin concentration in tear was analyzed before and after instillation. […] After washing, the result was reacted in a detection buffer solution provided by the manufacturer for 2 minutes, and then, the membrane was exposed to an X-ray film for 40 seconds, and an image thereof was obtained by using Quantity one software(Bio-Rad Lab., Hercules, Calif., USA), and chemiluminescent assay was performed thereon for qualitativeness.

normal white rat = assay: Intraocular pressure change due to instillation in normal white rats (day-time and night-time); type: in vivo
Description: (§1) White rats were grouped as a physiological saline solution instillation group, an angiogenin (recombinant human angiogenin, R&D systems, USA) 50 μg/ml instillation group, an angiogenin fragment (angiogenin 108-122, SEQ ID NO: 1, BACHEM, USA) instillation group, and a latanoprost 50 μg/ml instillation group, and each group consisted of 6 rats, that is, 12 eyes. Instillation test was repeatedly performed on normal rats and glaucoma model rats. Ophthalmic agent was administered at 8 AM and 8 PM in an amount of 4 μl to compare day-time effects and night-time effects, and 1, 3, 6, 9, 12, and 24 hours after the instillation, intraocular pressure was measured.

glaucoma white rats = assay: Intraocular pressure change due to instillation in glaucoma white rats (day-time and night-time); type: in vivo, rat; conditions: day-time test and night-time test
Description: Male white rats were used to prepare an episcleral venous ablation glaucoma model. The rat was anesthetized and a limbus periphery was divided into four portions, each of which was then subjected to 2 mm dissection at an interval of 90 degrees, and then, two radial conjunctival excisions were performed on upper dissection periphery. […] Episcleral vein is distinguishable because it is located […] than extra ocular muscle, has relatively low fluidity and a relatively large diameter, contains darker blood in vessel, and is connected to peripheral venous plexus. After surgical isolation of vein, the vein was lifted up by using 3 mm-width wooden spatula to be spaced apart from the peripheral tissue, and then, was subjected to electric ablation while being careful for the peripheral tissue not to have any thermal injury or any mechanical injury due to the contact. After the operation, a chloramphenical ophthalmic agent was administered thereto. Intraocular pressure was consecutively measured three or more times by using Tonopen (Solan, Fla., USA), and only reliable intraocular pressure values within 5% or less were recorded. Only used were rats that had higher intraocular pressure than that before the operation by 5 mmHg or more when measured on the first day, the third day, one week and two weeks before and after operation.
Also, steroid-induced glaucoma model was prepared as follows: 1% prednisolone was instilled twice a day in an amount of 4 μl for 30 days, and only rats that had higher intraocular pressure by 5 mmHg or more before operation were used.
as §1

Compound | NO concentration increase in aqueous humor ([1]; 3 hours after instillation) | expression of angiogenin in tear (angiogenin; human, short-term, 6 hours after instillation of 0.0005% Latanoprost, before instillation 42.2±9.1%) | long-term angiogenin concentration in tear (angiogenin; newly diagnosed glaucoma patients, after two months of instillation once a day, 0.0005% Latanoprost, before instillation 60.5±10.8%) | time after instillation up to which significant intraocular pressure reduction was maintained (normal white rat; day-time instillation) | intraocular pressure reduction (normal white rat; day-time instillation, 50 μg/ml, 3 hours after the instillation) | NO concentration increase in aqueous humor ([1]; 1 hour after the initial instillation, day-time and night-time test) | average intraocular pressure reduction (normal white rat; day-time instillation, one hour after instillation) | time after instillation up to which significant intraocular pressure reduction was maintained (normal white rat; night-time instillation) | intraocular pressure reduction (normal white rat; night-time instillation, 1 hour after the instillation) | course of intraocular pressure reduction effects after the first hour (in words) (glaucoma white rats; later than one hour after instillation) | intraocular pressure reduction effects (in words) (glaucoma white rats; one hour after instillation)
CC(C)OC(=O)CCC/C=C\C[C@@H]1[C@@H](CC[C@@H](O)CCc2ccccc2)[C@H](O)C[C@@H]1O [latanoprost, reference compound] | greatest NO concentration increase | 62.5±10.2% | 81.2±11.5% | up to 12 hours | −2.8±0.4 mmHg |  |  |  |  |  | 
angiogenin fragment: C-terminal fragment of angiogenin, angiogenin 108-122, SEQ ID NO: 1 (BACHEM) (ENGLPVHLDQSIFRR; listed as Homo sapiens) |  |  |  | up to 6 hours |  | ranked the second | −2.9±0.4 mmHg | up to 12 hours | −3.4±0.6 mmHg | rapidly diminished at the highest speed from among all of the groups | excellent intraocular pressure reduction effects
